Calls of active or inactive are those of the source. The rule behind the calls is not given here.
Tested on: rodent carcinogenicity bioassays, tumor incidence
Assay: CCRIS carcinogenicity studies
How it was run: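 NCI-built, expert-reviewed records of carcinogenicity and related test outcomes (mutagenicity, tumor promotion/inhibition) compiled from published and report sources, historical span 1985-2011, not updated.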

**Q.** For `CCn1c2ccccc2c2cc(N)ccc21`, which carcinogen call (Species: MOUSE, Strain/Sex: B6C3F1/FEMALE, Route: ORAL, Dose: 0, 800, 1200 PPM IN DIET FOR 78 WK (STUDY DURATION: 95-97 WK), Dose: 0, 800, 1200 PPM IN DIET FOR 78 WK (STUDY DURATION: 95-97 WK), Tumor Site: Type of Lesion: LIVER: HEPATOCELLULAR CARCINOMA) is on record?
**A.** active; positive

**Q.** What about the carcinogen call (Species: MOUSE, Strain/Sex: B6C3F1/MALE, Route: ORAL, Dose: 0, 800, 1200 PPM IN DIET FOR 78 WK (STUDY DURATION: 94-96 WK), Dose: 0, 800, 1200 PPM IN DIET FOR 78 WK (STUDY DURATION: 94-96 WK), Tumor Site: Type of Lesion: LIVER: HEPATOCELLULAR CARCINOMA, HEPATOCELLULAR ADENOMA OR CARCINOMA) of the same compound?
**A.** active; positive

**Q.** And the carcinogen call (Species: RAT, Strain/Sex: F344/FEMALE, Route: ORAL, Dose: 0, 800, 2000 PPM IN DIET FOR 78 WK (STUDY DURATION: 105-110 WK), Dose: 0, 800, 2000 PPM IN DIET FOR 78 WK (STUDY DURATION: 105-110 WK), Tumor Site: Type of Lesion: LIVER: NEOPLASTIC NODULE OR HEPATOCELLULAR CARCINOMA, UTERUS OR ENDOMETRIUM: ADENOCARCINOMA (NOS), EAR (ZYMBAL GLAND): S, Tumor Site: Type of Lesion: LIVER: NEOPLASTIC NODULE OR HEPATOCELLULAR CARCINOMA, UTERUS OR ENDOMETRIUM: ADENOCARCINOMA (NOS), EAR (ZYMBAL GLAND): S)?
**A.** active; positive

**Q.** What about the carcinogen call (Species: RAT, Strain/Sex: F344/MALE, Route: ORAL, Dose: 0, 800, 2000 PPM IN DIET FOR 78 WK (STUDY DURATION: 104-109 WK), Dose: 0, 800, 2000 PPM IN DIET FOR 78 WK (STUDY DURATION: 104-109 WK), Tumor Site: Type of Lesion: INTEGUMENTARY SYSTEM: BASAL CELL OR SQUAMOUS CELL CARCINOMA OR SQUAMOUS CELL PAPILLOMA, LIVER: HEPATOCELLULAR CARCINOMA) of the same compound?
**A.** active; positive

**Q.** Which results are given for `CCCO`?
**A.** carcinogen call (Species: DOG, Strain/Sex: BEAGLE/FEMALE, Route: GAVAGE, Dose: 0, 30, 180 MG/KG/D 7 D/WK FOR 52 WK (STUDY DURATION: 52 WK), Dose: 0, 30, 180 MG/KG/D 7 D/WK FOR 52 WK (STUDY DURATION: 52 WK)): inactive; negative; carcinogen call (Species: DOG, Strain/Sex: BEAGLE/MALE, Route: GAVAGE, Dose: 0, 30, 180 MG/KG/D 7 D/WK FOR 52 WK (STUDY DURATION: 52 WK), Dose: 0, 30, 180 MG/KG/D 7 D/WK FOR 52 WK (STUDY DURATION: 52 WK)): inactive; negative; carcinogen call (Species: MONKEY, Strain/Sex: MACACA ARCTODIES/MALE, Route: ORAL, Dose: 0, 0.25, 2.5, 25 MG/KG 1/D FOR 54 WK (STUDY DURATION: 54 WK), Dose: 0, 0.25, 2.5, 25 MG/KG 1/D FOR 54 WK (STUDY DURATION: 54 WK)): inactive; negative; carcinogen call (Species: MOUSE, Strain/Sex: SWISS/FEMALE, Route: GAVAGE, Dose: 0, 50, 500 MG/KG/D FOR 18 MO (STUDY DURATION: 18 MO), Dose: 0, 50, 500 MG/KG/D FOR 18 MO (STUDY DURATION: 18 MO)): inactive; negative; carcinogen call (Species: MOUSE, Strain/Sex: SWISS/MALE, Route: GAVAGE, Dose: 0, 50, 500 MG/KG/D FOR 18 MO (STUDY DURATION: 18 MO), Dose: 0, 50, 500 MG/KG/D FOR 18 MO (STUDY DURATION: 18 MO)): inactive; negative; carcinogen call (Species: RAT, Strain/Sex: SPRAGUE-DAWLEY/FEMALE, Route: GAVAGE, Dose: 0, 50, 500 MG/KG 1/D FOR 24 MO (STUDY DURATION: 24 MO), Dose: 0, 50, 500 MG/KG 1/D FOR 24 MO (STUDY DURATION: 24 MO)): inactive; negative; carcinogen call (Species: RAT, Strain/Sex: SPRAGUE-DAWLEY/MALE, Route: GAVAGE, Dose: 0, 50, 500 MG/KG 1/D FOR 24 MO (STUDY DURATION: 24 MO), Dose: 0, 50, 500 MG/KG 1/D FOR 24 MO (STUDY DURATION: 24 MO)): inactive; negative

**Q.** With `CCOC(=O)C(C(=O)OCC)=C(NO)c1ccccc1` as the compound, how does the carcinogen call (Species: Mouse, Strain/Sex: Swiss Albino/Female (60/sex/group), Route: Oral, Dose: 0, 10, 30, 100 ppm in feed for 18 mo, Dose: 0, 10, 30, 100 ppm in feed for 18 mo) read?
**A.** inactive; negative; purity 97%

**Q.** What about the carcinogen call (Species: Mouse, Strain/Sex: Swiss Albino/Male (60/sex/group), Route: Oral, Dose: 0, 10, 30, 100 ppm in feed for 18 mo, Dose: 0, 10, 30, 100 ppm in feed for 18 mo, Tumor Site: Type of Lesion: Liver: Hepatocellular adenoma (2/47, 4/48, 3/49, 5/53), Hepatocellular carcinoma (0/47, 0/48, 2/49, 4/53), Combined (2/4, Tumor Site: Type of Lesion: Liver: Hepatocellular adenoma (2/47, 4/48, 3/49, 5/53), Hepatocellular carcinoma (0/47, 0/48, 2/49, 4/53), Combined (2/4) of the same compound?
**A.** active; positive (statistically significant trend but not incidence); purity 97%

**Q.** What about the carcinogen call (Species: Rat, Strain/Sex: Sprague-Dawley /Female (70/sex/group in dosed animals; 105 controls/sex), Route: Oral, Dose: 0, 60, 190, 600 ppm in feed for 104 wks, Dose: 0, 60, 190, 600 ppm in feed for 104 wks) of the same compound?
**A.** inactive; negative: purity 98.5%; liver: nonneoplastic liver lesions (eosinophilic cellula

**Q.** And the carcinogen call (Species: Rat, Strain/Sex: Sprague-Dawley /Male (70/sex/group in dosed animals; 105 controls/sex), Route: Oral, Dose: 0, 60, 190, 600 ppm in feed for 104 wks, Dose: 0, 60, 190, 600 ppm in feed for 104 wks)?
**A.** inactive; negative: purity 98.5%; liver: nonneoplastic liver lesions (eosinophilic cellula

**Q.** Which carcinogen call (Species: HAMSTER, Strain/Sex: SYRIAN/MALE,FEMALE, Route: SUBCUTANEOUS, Dose: 50-200 MG/KG 1/WK FOR LIFE, Tumor Site: Type of Lesion: RESPIRATORY TRACT, LIVER, KIDNEY, Tumor Site: Type of Lesion: RESPIRATORY TRACT, LIVER, KIDNEY) does the source give for `CCCN(CC(C)=O)N=O` here?
**A.** active; positive

**Q.** What about the carcinogen call (Species: MOUSE, Strain/Sex: NMRI/FEMALE, Route: SUBCUTANEOUS, Dose: 0.05, 0.1, 0.2% OF 603 MG/KG IN SALINE 1/WK FOR LIFE, Dose: 0.05, 0.1, 0.2% OF 603 MG/KG IN SALINE 1/WK FOR LIFE, Tumor Site: Type of Lesion: LIVER: HEMANGIOENDOTHELIAL SARCOMA, NASAL CAVITY: PAPILLOMA, ADENOCARCINOMA, NASAL TURBINATES: PAPILLOMA, ADENOCARCINOMA, Tumor Site: Type of Lesion: LIVER: HEMANGIOENDOTHELIAL SARCOMA, NASAL CAVITY: PAPILLOMA, ADENOCARCINOMA, NASAL TURBINATES: PAPILLOMA, ADENOCARCINOMA) of the same compound?
**A.** active; positive

**Q.** And the carcinogen call (Species: RAT, Strain/Sex: SPRAGUE-DAWLEY/MALE,FEMALE, Route: SUBCUTANEOUS, Dose: 0.12, 0.42, 0.85 MG/KG 1/WK FOR LIFE, Dose: 0.12, 0.42, 0.85 MG/KG 1/WK FOR LIFE, Tumor Site: Type of Lesion: LIVER: HEPATOMA, CARCINOMA)?
**A.** active; positive

**Q.** What does the source list for `CCCCN(N=O)C(CCC)OC(C)=O` (stereo unspecified)?
**A.** carcinogen call (Species: RAT, Strain/Sex: F344/FEMALE, Route: SUBCUTANEOUS, Dose: 38 UMOL/KG IN OLIVE OIL 1/WK FOR 10 WK, Tumor Site: Type of Lesion: INJECTION SITE: MALIGNANT FIBROUS HISTIOCYTOMA): active; positive; carcinogen call (Species: RAT, Strain/Sex: F344/MALE, Route: SUBCUTANEOUS, Dose: 38 UMOL/KG IN OLIVE OIL 1/WK FOR 10 WK, Tumor Site: Type of Lesion: INJECTION SITE: MALIGNANT FIBROUS HISTIOCYTOMA, LUNG: ADENOMA): active; positive

**Q.** With `Clc1cnc(Oc2ccc(Oc3ncc(Cl)cc3Cl)cc2)c(Cl)c1` as the compound, how does the carcinogen call (Species: MOUSE, Strain/Sex: C57BL/MALE, Route: INTRAGASTRIC, Dose: 0, 3 MG/KG BW IN CORN OIL 1/2 WK FOR 24 WK (STUDY DURATION: 55 WK), Tumor Site: Type of Lesion: LIVER: HEPATOCELLULAR ADENOMA OR CARCINOMA) read?
**A.** active; positive

**Q.** What about the carcinogen call (Species: MOUSE, Strain/Sex: C57BL/MALE, Route: INTRAPERITONEAL, Dose: 0, 3 MG/KG BW IN CORN OIL 1/2 WK FOR 24 WK (STUDY DURATION: 55 WK), Tumor Site: Type of Lesion: LIVER: HEPATOCELLULAR ADENOMA OR CARCINOMA) of the same compound?
**A.** active; positive

**Q.** What about the carcinogen call (Species: MOUSE, Strain/Sex: DBA/MALE, Route: INTRAGASTRIC, Dose: 0, 3 MG/KG BW IN CORN OIL 1/2 WK FOR 24 WK (STUDY DURATION: 55 WK)) of the same compound?
**A.** active; positive

**Q.** What about the carcinogen call (Species: MOUSE, Strain/Sex: DBA/MALE, Route: INTRAPERITONEAL, Dose: 0, 3 MG/KG BW IN CORN OIL 1/2 WK FOR 24 WK (STUDY DURATION: 55 WK), Tumor Site: Type of Lesion: LIVER: HEPATOCELLULAR ADENOMA OR CARCINOMA) of the same compound?
**A.** active; positive

**Q.** What about the carcinogen call (Species: RAT, Strain/Sex: F344/MALE, Route: INTRAGASTRIC, Dose: 0, 30 MG/KG IN CORN OIL 1/2 WK FOR 71 WK (STUDY DURATION: 73 WK)) of the same compound?
**A.** inactive; negative

**Q.** And the carcinogen call (Species: RAT, Strain/Sex: F344/MALE, Route: INTRAPERITONEAL, Dose: 0, 30 MG/KG IN CORN OIL 1/2 WK FOR 71 WK (STUDY DURATION: 73 WK))?
**A.** inactive; negative

Source: PubChem BioAssay AID1259411 (Chemical Carcinogenesis Research Information System (CCRIS), 2018)
